Counter-ions that a name gives are not always drawn.

In one test the target is T1, recombinant HAT1 (Homo sapiens, UniProt O14929).
T1 construct: FLAG (DYKDDDDK); made in house; host or cells: HEK-293f freestyle cells (human), forskolin-treated; purified by FLAG immunoprecipitation
T1 sequence (O14929 1-419): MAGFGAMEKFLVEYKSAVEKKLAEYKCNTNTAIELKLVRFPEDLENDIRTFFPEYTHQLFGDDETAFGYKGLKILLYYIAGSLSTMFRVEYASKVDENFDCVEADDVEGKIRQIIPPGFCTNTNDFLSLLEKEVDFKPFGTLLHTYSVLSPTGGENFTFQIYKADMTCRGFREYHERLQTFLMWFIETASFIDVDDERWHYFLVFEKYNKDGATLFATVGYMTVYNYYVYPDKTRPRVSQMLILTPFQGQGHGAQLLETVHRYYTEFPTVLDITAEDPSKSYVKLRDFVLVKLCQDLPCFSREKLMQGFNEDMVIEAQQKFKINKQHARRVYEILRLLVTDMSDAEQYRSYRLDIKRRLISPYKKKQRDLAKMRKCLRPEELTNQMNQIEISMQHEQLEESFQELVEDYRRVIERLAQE
Nature of the test: HAT1 modulator assay (4-pentynoyl CoA, click chemistry, streptavidin-HRP fluorescence). It is filed as biochemical. The conditions noted are these: for modulation of HAT1 activity (agonist or antagonist): screen of fifty compounds, FIG. 8; for inhibition of HAT1 activity: HAT1 assay, FIGS. 7B and 9. An excerpt: Provided in FIG. 4 is an exemplary embodiment of an experimental assay to identify modulators of HAT1. To begin the assay, a putative modulator is mixed with the substrate histone H4 N-terminal peptide, the acetyl-like donor 4-pentynonyl CoA, and recombinant HAT1. The H4 N-terminal peptide is the first 23 amino acids of H4 (SEQ. ID No. 1) with a biotin conjugated at the C-terminus of the peptide. Importantly, K5 and K12 of the H4 N-terminal peptide are available for di-acetylation. The 4-pentynoyl CoA is an acetyl CoA derivative having an […] extending from the acetyl group. The recombinant HAT1 is produced in human cells with a peptide tag […] (FLAG®), which is purified via immunoprecipitation.
Each reaction is carried out within a well of a 96-well plate for one hour at 37° C., resulting in pentynoylation of K5 and K12 of the substrate peptide. The reactions are transferred to a neutravidin-coated 96-well plate to capture the biotinylated peptide via a neutravidin-biotin interaction performed for one hour at room temperature. After washing the wells 3X with PBS-tween, the substrate peptides are exposed to biotinylated azide, which reacts with the pentynoyl groups in a copper (I) click chemistry reaction to further functionalize these appendages with biotin, which is performed at 37° C. for 1 hour. Substrates that were acetylated by HAT1 now have an available biotin extending from K5 and K12. After washing the wells 3X with PBS-tween, streptavidin-HRP is added to the well to bind to every available biotin for one hour at 37° C. After washing the wells 3X with PBS-tween, 10-Acetyl-3,7-dihydroxyphenoxazine (Amplex® Red ThermoFisher® Scientific, Waltham, MA) is added as a substrate of HRP and incubated for 30 minutes to produce a detectable fluorescence (570 nm excitation and 585 nm emission), which is measurable utilizing a plate reader.
The HAT1 enzymatic reaction conditions was also optimized, utilizing 0.1M EDTA, 0.1M DTT or both. As portrayed in the right panel of FIG. 5, 0.1M DTT provided the best activity and was utilized in the assay reaction.
FIG. 6 provides HAT1 enzyme kinetics (left panel) and Michaelis-Menten analysis (right panel). To perform the enzyme kinetics, various amounts of input enzyme were tested in 20 uL reaction with the amount of activity measured over time. […] Assay reactions were run with 15 μM of substrate peptide.

The subject of test [1] is CBP/p300 acetyltransferase. As to conditions: stated as known; cited from earlier work.

Take `O=C(O)C(O)C(O)C(=O)O.OCC(O)C(O)C(O)C(O)C(O)c1nc2ccccc2[nH]1` (stereo not drawn) [NSC 56094, 1-(1H-Benzimidazol-2-yl)hexane-1,2,3,4,5,6-hexol; 2,3-dihydroxybutanedioic acid]: at recombinant HAT1, the “modulation of HAT1 activity (agonist or antagonist)” value (“modulation of HAT1 activity” below) is reported as “agonists”.
For `CC[C@@]1(O)C[C@H](O[C@H]2C[C@H](N(C)C)[C@H](O)[C@H](C)O2)c2c(O)c3c(c(O)c2[C@H]1O[C@H]1C[C@H](N(C)C)[C@H](O)[C@H](C)O1)C(=O)c1cccc(O)c1C3=O` [NSC 136044, rhodomycin A], the “inhibition of HAT1 activity” value at recombinant HAT1 was “various ability to inhibit HAT1”.
On the same count and under the same terms, the value for `COc1cccc2c1C(=O)c1c(O)c3c(c(O)c1C2=O)CC(O)(/C(C)=N/O)CC3OC1CC(N)C(O)C(C)O1` (stereo not drawn) [NSC 143491, daunomycin 3-oxime hydrochloride] was “various ability to inhibit HAT1”; that for `CC[C@@]1(O)C[C@H](O[C@H]2C[C@H](N(C)C)[C@H](O[C@H]3C[C@H](O)[C@H](O[C@H]4CCC(=O)[C@H](C)O4)[C@H](C)O3)[C@H](C)O2)c2c(cc3c(c2O)C(=O)c2c(O)cccc2C3=O)[C@H]1C(=O)OC` [NSC 208734, aclacinomycin A1] was “various ability to inhibit HAT1”.
The same measure, in the same setting: the value for `CC[C@@]1(O)C[C@H](O[C@H]2C[C@H](N(C)C)[C@H](O[C@H]3C[C@@H]4O[C@H]5CC(=O)[C@H](C)O[C@H]5O[C@@H]4[C@H](C)O3)[C@H](C)O2)c2c(cc3c(c2O)C(=O)c2c(O)ccc(O)c2C3=O)[C@H]1C(=O)OC` [NSC 243023, cinerubin B] was “various ability to inhibit HAT1”; that for `CC[C@@]1(O)C[C@H](OC2CC(N(C)C)C(OC3CC(O)C(OC4CC(O)C(O)C(C)O4)C(C)O3)C(C)O2)c2c(cc3c(c2O)C(=O)c2c(O)ccc(O)c2C3=O)[C@H]1C(=O)OC` (stereo partly drawn) [NSC 265211, Methyl (1R,2R,4S)-4-[5-[5-(4,5-dihydroxy-6-methyloxan-2-yl)oxy-4-hydroxy-6-methyloxan-2-yl]oxy-4-(dimethylamino)-6-methyloxan-2-yl]oxy-2-ethyl-2,5,7,10-tetrahydroxy-6,11-dioxo-3,4-dihydro-1H-tetracene-1-carboxylate] was “various ability to inhibit HAT1”; that for `COC1C(C)OC(OC2CC(C)(O)Cc3cc4c(c(O)c32)C(=O)c2c(O)cc3c(c2C4=O)OC2OC3(C)C(O)C(N(C)C)C2O)C(OC)C1(C)OC` (stereo not drawn) [NSC 265450, nagalomycin C] was “various ability to inhibit HAT1”.
The same measure, in the same setting: the value for `CC[C@@]1(O)C[C@H](O[C@H]2C[C@H](N(C)C)[C@H](O)[C@H](C)O2)c2c(cc3c(c2O)C(=O)c2c(O)ccc(O)c2C3=O)[C@H]1C(=O)OC` [NSC 267229, pyrromycin] was “various ability to inhibit HAT1”.
Take `COc1cccc2c1C(=O)c1c(O)c3c(c(O)c1C2=O)C[C@@](O)(C(C)=O)C[C@@H]3OC1CC(N(Cc2ccccc2)Cc2ccccc2)C(O)C(C)O1.Cl` (stereo partly drawn) [NSC 268242, N,N-Dibenzyldaunorubicin]: at recombinant HAT1, the “inhibition of HAT1 activity” value is reported as “various ability to inhibit HAT1”.
Take `CC1(O)Nc2nc3c(ncn3C3OC(CO)C(O)C3O)c(=O)n2C1O` (stereo not drawn) [NSC 309109, 3-[3,4-Dihydroxy-5-(hydroxymethyl)oxolan-2-yl]-6,7-dihydroxy-6-methyl-5,7-dihydroimidazo[1,2-a]purin-9-one]: the “modulation of HAT1 activity” value on recombinant HAT1 is listed as “antagonists”.
With `OCC(O)C(OC1OC(CO)C(O)C(O)C1O)C(O)c1cnn(-c2ccccc2)n1` (stereo not drawn) [NSC 405936, 2-(Hydroxymethyl)-6-[1,3,4-trihydroxy-1-(2-phenyltriazol-4-yl)butan-2-yl]oxyoxane-3,4,5-triol], the “modulation of HAT1 activity” value at recombinant HAT1 is reported as “agonists”.
`CC(C)(COP(=O)(O)OP(=O)(O)OC[C@H]1O[C@@H](n2cnc3c(N)ncnc32)[C@H](O)[C@@H]1OP(=O)(O)O)[C@@H](O)C(=O)NCCC(=O)NCCSC(=O)[C@@H](N)CCCCN` [lysyl CoA, reference compound]: the “inhibition of CBP/p300 acetyltransferase” value in test [1] was “known inhibitor of CBP/p300 acetyltransferase”. The “inhibition of HAT1 activity” value at recombinant HAT1 is given as “did not inhibit HAT1 activity”.
In the case of “H4 peptide substrate: first 23 amino acids of H4 (SEQ. ID No. 1) with a biotin conjugated at the C-terminus [reference compound]”, the Km (as a rule, the substrate concentration at which the rate is half of its maximum) with recombinant HAT1 (Michaelis-Menten analysis, H4 peptide substrate varied, FIG. 6) came to 13 µM.
For nogalarol [NSC 86005], the “modulation of HAT1 activity” value at recombinant HAT1 is on record as “antagonists”.
